Laboratory results reported in US9307763B2, “Ligands for odor receptors and olfactory neurons” (The Regents of the University of California, priority 2010, dated 2016).

Assays:
Or82a = molecular target: T1, Or82a (Drosophila melanogaster, UniProt P82986); settings: single strong ligand of the training set; cited from earlier work
T1 sequence (P82986 1-385): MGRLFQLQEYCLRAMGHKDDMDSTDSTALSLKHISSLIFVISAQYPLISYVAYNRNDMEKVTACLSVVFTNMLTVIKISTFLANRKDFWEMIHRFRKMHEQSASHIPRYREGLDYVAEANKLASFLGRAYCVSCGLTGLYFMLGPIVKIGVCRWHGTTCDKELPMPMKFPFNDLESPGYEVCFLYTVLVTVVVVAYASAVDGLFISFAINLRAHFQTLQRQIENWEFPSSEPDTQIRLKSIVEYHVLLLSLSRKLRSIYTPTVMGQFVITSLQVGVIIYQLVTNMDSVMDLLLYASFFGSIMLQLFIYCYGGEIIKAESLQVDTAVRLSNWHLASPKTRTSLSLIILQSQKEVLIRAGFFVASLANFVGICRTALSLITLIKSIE
T1 sequence (Q9VNB5 1-486 partner): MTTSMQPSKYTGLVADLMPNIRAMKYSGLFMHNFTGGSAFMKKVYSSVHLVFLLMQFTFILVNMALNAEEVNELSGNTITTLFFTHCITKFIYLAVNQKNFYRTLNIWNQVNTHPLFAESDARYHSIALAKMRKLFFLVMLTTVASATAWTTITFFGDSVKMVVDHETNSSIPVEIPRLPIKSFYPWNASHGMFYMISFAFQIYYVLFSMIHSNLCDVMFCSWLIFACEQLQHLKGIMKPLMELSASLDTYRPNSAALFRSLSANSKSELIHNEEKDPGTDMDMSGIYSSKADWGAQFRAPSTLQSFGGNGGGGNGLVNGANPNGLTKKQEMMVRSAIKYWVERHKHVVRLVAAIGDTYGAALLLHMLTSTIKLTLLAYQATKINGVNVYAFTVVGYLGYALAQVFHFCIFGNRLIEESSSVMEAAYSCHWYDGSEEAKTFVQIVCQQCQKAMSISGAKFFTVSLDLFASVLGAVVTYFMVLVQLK

CO2 responsive neurons = settings: […]; averaged across the top 2 responders of the 4 species; cited from earlier work
Or98a, ab7A = molecular target: T2, Or98a, ab7A (Drosophila melanogaster, UniProt Q9VAZ3); assay: single-sensillum electrophysiology; assay type: in vivo; settings: odorant at 10^-2
T2 construct: The 9 Ors tested are expressed in well-defined olfactory receptor neurons (ORNs) housed within the large and small basiconic sensilla; from tissue; host or cells: D. melanogaster antenna, ab7A olfactory receptor neuron (in vivo recording)
T2 sequence (Q9VAZ3 1-397): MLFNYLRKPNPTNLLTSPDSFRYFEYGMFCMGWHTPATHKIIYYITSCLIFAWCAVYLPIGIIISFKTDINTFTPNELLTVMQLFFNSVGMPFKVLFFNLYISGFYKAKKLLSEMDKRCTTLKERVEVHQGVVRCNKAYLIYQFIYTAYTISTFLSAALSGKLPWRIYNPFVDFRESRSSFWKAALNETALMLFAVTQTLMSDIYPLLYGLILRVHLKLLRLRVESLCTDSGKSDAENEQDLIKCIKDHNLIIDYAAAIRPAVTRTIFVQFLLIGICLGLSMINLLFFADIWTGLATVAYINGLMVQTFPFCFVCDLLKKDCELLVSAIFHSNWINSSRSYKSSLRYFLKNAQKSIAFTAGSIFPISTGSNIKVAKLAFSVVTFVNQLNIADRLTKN
T2 sequence (Q9VNB5 1-486 partner): T1 sequence (Q9VNB5 1-486 partner)
Procedure: The results of the in silico screen are provocative. However in order to verify whether these predictions were meaningful, functional evidence was obtained. In order to validate the success of the in silico predictions the responses of 9 Odor receptors using single-sensillum electrophysiology directly on the Drosophila melanogaster antenna were analyzed. For each Odor receptor several odorants were tested from the top 500 predicted hits. A sampling of ˜192 novel odorants were tested with ˜11-21 novel odorants tested for each receptor, which were scattered somewhat randomly within the top 500 predictions for each receptor, providing a relatively unbiased set of chemical structures.
To test identified compounds any number of biological assays can be used to measure ORN activity in the presence of a putative ligand/compounds. […] For the purpose of testing each of these volatile compounds the compounds were diluted to ˜10^−2 in paraffin oil or distilled water. The 9 Ors tested are expressed in well-defined olfactory receptor neurons (ORNs) housed within the large and small basiconic sensilla (ab1-ab7) on the antenna. A previously identified diagnostic panel of odorants was used to distinguish individual classes of sensilla (ab1-ab7) and therefore identified the sensilla that contained the target Or expressing ORN. […]

Question: For `CC(=O)OC/C=C(\C)CCC=C(C)C` [geranyl acetate, reference compound], which “activation of Or82a” value (Or82a) is on record?
Answer: Its value is “activated strongly”.

Question: What about the “Final Activity” value (CO2 responsive neurons) of the same molecule?
Answer: Its value is 0.

Question: Which “activation of odor receptor (firing rate)” value (Or98a, ab7A) does the source give for `CC(=O)OCC=C(C)C` [prenyl acetate] here?
Answer: Its value is greater than 250 spikes/sec.
